The results in this text go back to PubChem BioAssay AID977613 (Broad Institute, 2014).

The test system of this experiment is Broad 7084-01 inhibitor HTS, set 2. Description: single-concentration hits, screen 7084 set 2 (AID 977613).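 Further: host cells are infected with parasite promastigotes that become internalized.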

Active and inactive are the calls of the source. How the calls were made is not given here. A value given as a limit tells only on which side of the number the result lay.

For `COc1ccc(NC(=O)N2CC(=O)N3[C@H](C2)[C@@H](c2ccc(Br)cc2)[C@@H]3CO)cc1`, the active concentration was > 10 µM (inactive).

Regarding `CN1C(=O)c2cc(NC(=O)C3CCOCC3)ccc2OC[C@@H]2O[C@@H](CC(=O)NCCc3ccncc3)CC[C@H]21`, the active concentration is > 10 µM (inactive).

As to `Cc1ccc(NC(=O)Nc2ccc3c(c2)C(=O)N(C)[C@@H]2CC[C@H](CC(=O)NCC(F)(F)F)O[C@@H]2CO3)cc1`, the active concentration is > 10 µM (inactive).

Consider `O=C(C[C@@H]1CC[C@H]2[C@@H](COC[C@H](O)CN2Cc2ccccc2)O1)NCCc1ccccc1`, for which the active concentration is > 10 µM (inactive).

As to `CCS(=O)(=O)N1CCC2(CC1)CN(C(=O)Nc1c(C)noc1C)[C@H](CO)c1c2c2ccc(OC)cc2n1C`, the active concentration is > 10 µM (inactive).

As to `O=C(C1CCOCC1)N1[C@@H](CO)[C@@H](c2ccccc2)C12CN(Cc1cccc(Cl)c1)C2`, the active concentration is > 10 µM (inactive).

With `CCS(=O)(=O)N1CC2(CN(C(=O)Cc3ccccn3)[C@H](CO)c3[nH]c4cc(OC)ccc4c32)C1`, the active concentration is > 10 µM (inactive).

On to `COc1ccc2c3c([nH]c2c1)[C@H](CO)N(Cc1ccncc1)CC31CCN(CC2CCOCC2)CC1`, for which the active concentration is > 10 µM (inactive).

Regarding `CC=Cc1ccc2n(c1=O)C[C@@H]1[C@@H](CO)[C@H](C(=O)NC3CCC3)[C@H]2N1S(=O)(=O)c1cn(C)cn1` (mixture of isomers), the active concentration is > 10 µM (inactive).

Turning to `CCS(=O)(=O)Nc1ccc2c(c1)C(=O)N(C)[C@H]1CC[C@H](CC(=O)N[C@@H]3CCN(Cc4ccccc4)C3)O[C@@H]1CO2`, the active concentration was > 10 µM (inactive).

As to `COc1cccc(-c2ccc3c(c2)[C@H]2[C@H](CCN2S(=O)(=O)c2ccccc2C)[C@@H](CO)N3)c1`, the active concentration is > 10 µM (inactive).

For `COc1ccc(-c2ccccc2[C@@H]2[C@@H](CO)N(C(=O)NC(C)C)[C@H]2C#N)cc1`, the active concentration was > 10 µM (inactive).

Turning to `CCCNC(=O)N1CC(=O)N2[C@@H](CO)[C@@H](c3ccc(C#CCC4CCCC4)cc3)[C@@H]2C1`, the active concentration was > 10 µM (inactive).

For `CC(C)CC#Cc1ccc([C@H]2[C@H]3CN(S(=O)(=O)c4cccc(F)c4)CC(=O)N3[C@H]2CO)cc1`, the active concentration is > 10 µM (inactive).

Turning to `CCCC(=O)N1CC2(C1)CN(C(=O)c1ccc(F)cc1)[C@H](CO)c1[nH]c3cc(OC)ccc3c12`, the active concentration is > 10 µM (inactive).

In the case of `CCCNC(=O)N1[C@@H]2CN(C(=O)c3cccnc3)c3ccccc3[C@@H]2[C@@H]1CO`, the active concentration is > 10 µM (inactive).

On to `O=C(CC1CC1)N1[C@H](CO)[C@@H](c2ccccc2)C12CN(Cc1cccnc1)C2`, for which the active concentration is > 10 µM (inactive).

Take `COCC(=O)N1[C@H](C#N)[C@@H](c2ccccc2-c2cccc(C)c2)[C@@H]1CO`: the active concentration is > 10 µM (inactive).

`C[C@H](NC(=O)[C@@H]1[C@@H](CO)[C@@H]2Cn3c(cccc3=O)[C@H]1N2CCC(F)(F)F)c1ccccc1`: the active concentration is > 10 µM (inactive).

Regarding `CCCC#Cc1ccc([C@H]2[C@H](CO)N3C(=O)CN(C(=O)c4cccnc4)C[C@@H]23)cc1`, the active concentration was > 10 µM (inactive).

On to `CC(C)NC(=O)N1[C@H](CO)[C@H](c2ccccc2-c2ccc(F)cc2)[C@@H]1C#N`, for which the active concentration is > 10 µM (inactive).

With `N#C[C@@H]1[C@@H](c2ccccc2C2=CCCCC2)[C@@H](CO)N1S(=O)(=O)c1cccc(F)c1`, the active concentration is > 10 µM (inactive).

In the case of `COCC(=O)N1[C@@H]2c3ccc(/C=C/c4ccccc4)c(=O)n3C[C@H]1[C@H](CO)[C@H]2C(=O)N1CCOCC1`, the active concentration is > 10 µM (inactive).

For the compound `O=C(C[C@H]1CC[C@@H]2[C@H](COC[C@@H](O)CN2S(=O)(=O)c2cccc(F)c2)O1)Nc1ccc(-c2ccccc2)cc1`, the active concentration is > 10 µM (inactive).

As for `CN1C[C@H]2[C@@H](c3ccccc31)[C@@H](CO)N2C(=O)Nc1cccc(F)c1`, the active concentration was > 10 µM (inactive).

On to `COCC(=O)N1[C@H](C#N)[C@@H](c2ccccc2-c2ccccc2F)[C@@H]1CO`, for which the active concentration is > 10 µM (inactive).

In the case of `COc1ccc2c3c(n(C)c2c1)[C@H](CO)N(C(=O)Nc1ccc(F)cc1)CC31CN(C(=O)Cc2ccncc2)C1`, the active concentration was > 10 µM (inactive).

Consider `Cn1cnc(S(=O)(=O)N2C[C@@H](O)COC[C@H]3O[C@H](CC(=O)NC4CCCC4)CC[C@@H]32)c1`, for which the active concentration was > 10 µM (inactive).

In the case of `O=C(c1cnccn1)N1CC(=O)N2[C@H](CO)[C@@H](c3ccc(C#CC4CC4)cc3)[C@H]2C1`, the active concentration is > 10 µM (inactive).

Turning to `CC(=O)N1CCCCN2[C@H](CO)[C@H](c3ccc(-c4ccccc4)cc3)[C@H]2C1`, the active concentration is > 10 µM (inactive).

Regarding `O=C(C[C@@H]1CC[C@@H]2[C@H](COC[C@@H](O)CN2C(=O)Nc2ccc(Cl)c(Cl)c2)O1)NCc1ccc(Cl)cc1`, the active concentration is > 10 µM (inactive).

Regarding `COc1ccc2c3c([nH]c2c1)[C@@H](CO)N(C(=O)c1ccc(F)cc1)CC31CCN(S(=O)(=O)c2cccs2)CC1`, the active concentration was > 10 µM (inactive).

For the compound `COC(=O)C[C@H]1CC[C@@H]2[C@H](COc3ccc(NC(=O)c4cccc(Cl)c4)cc3C(=O)N2C)O1`, the active concentration is > 10 µM (inactive).

Turning to `CC=Cc1ccc2n(c1=O)C[C@H]1[C@H](CO)[C@@H](C(=O)NCCC)N(Cc3cocn3)[C@@H]21` (mixture of isomers), the active concentration is > 10 µM (inactive).

On to `C/C=C/c1ccc([C@H]2[C@@H](CO)N3C(=O)CN(Cc4ccc(F)cc4)C[C@@H]23)cc1`, for which the active concentration was > 10 µM (inactive).

For the compound `CCC(=O)N1CC2(C1)CN(C(=O)c1cnccn1)[C@H](CO)c1c2c2ccc(OC)cc2n1C`, the active concentration is > 10 µM (inactive).

In the case of `O=C(C[C@@H]1CC[C@@H]2[C@H](COC[C@@H](O)CN2CC2CC2)O1)NCC1CC1`, the active concentration was > 10 µM (inactive).

Turning to `O=C1CNC[C@H]2[C@@H](c3ccc(C#CC4CCCCC4)cc3)[C@@H](CO)N12`, the active concentration was > 10 µM (inactive).

As to `COc1ccc2c3c([nH]c2c1)[C@@H](CO)N(C(=O)NC(C)C)CC31CCN(C(=O)c2cnccn2)CC1`, the active concentration was > 10 µM (inactive).

Consider `CCCN1[C@@H]2c3ccc(C4=CCCCC4)c(=O)n3C[C@@H]2[C@@H](CO)[C@@H]1C(=O)NC1Cc2ccccc2C1`, for which the active concentration is > 10 µM (inactive).

With `O=C(c1cccc(F)c1)N1CCCCN2[C@H](C1)[C@@H](c1ccc(C#CC3(O)CCCC3)cc1)[C@@H]2CO`, the active concentration was > 10 µM (inactive).

As to `Cc1ccccc1S(=O)(=O)N1CCCCN2[C@H](C1)[C@@H](c1ccc(C#CCN(C)C)cc1)[C@@H]2CO`, the active concentration is > 10 µM (inactive).

On to `O=C(Nc1cccc(F)c1)N1CCCCN2[C@H](C1)[C@@H](c1ccc(C#Cc3cccnc3)cc1)[C@@H]2CO`, for which the active concentration is > 10 µM (inactive).

Turning to `O=C(C[C@H]1CC[C@@H]2[C@H](COC[C@@H](O)CN2S(=O)(=O)c2ccc(F)cc2)O1)NCC1CC1`, the active concentration was > 10 µM (inactive).

In the case of `COc1cccc(-c2ccc([C@@H]3[C@@H](CO)N4C(=O)CNC[C@H]34)cc2)c1`, the active concentration is > 10 µM (inactive).

For the compound `CN(C)C(=O)C[C@@H]1CC[C@H]2[C@@H](COC[C@H](O)CN2C(=O)C2CC2)O1`, the active concentration is > 10 µM (inactive).

Consider `CC(C)CC#Cc1ccc([C@@H]2[C@H](CO)N3C(=O)CN(S(=O)(=O)c4cccc(F)c4)C[C@@H]23)cc1`, for which the active concentration was > 10 µM (inactive).

Take `O=C(C[C@@H]1CC[C@H]2[C@@H](COC[C@@H](O)CN2S(=O)(=O)c2cccc(Cl)c2)O1)Nc1ccc(-c2ccccc2)cc1`: the active concentration was > 10 µM (inactive).

`COc1ccc2c3c([nH]c2c1)[C@@H](CO)N(C(=O)Nc1ccc(F)cc1)CC31CN(C(=O)c2ccccc2F)C1`: the active concentration is > 10 µM (inactive).

As for `COC(=O)C[C@H]1CC[C@@H]2[C@@H](COc3ccc(NS(=O)(=O)c4ccccc4Cl)cc3C(=O)N2C)O1`, the active concentration is > 10 µM (inactive).

Take `O=C(c1cnccn1)N1CC(=O)N2[C@H](CO)[C@H](c3ccc(C#CC4CC4)cc3)[C@@H]2C1`: the active concentration is > 10 µM (inactive).

On to `CN(C)C(=O)C[C@@H]1CC[C@@H]2[C@H](COC[C@H](O)CN2C(=O)C2CC2)O1`, for which the active concentration is > 10 µM (inactive).

In the case of `Cc1ccccc1-c1ccc([C@@H]2[C@@H](CO)N3C(=O)CN(S(C)(=O)=O)C[C@H]23)cc1`, the active concentration is > 10 µM (inactive).

Take `COCC(=O)N1[C@H](CO)[C@H]2c3ccccc3NC[C@H]21`: the active concentration was > 10 µM (inactive).

For `COc1ccccc1CNC(=O)C[C@@H]1CC[C@@H]2[C@H](COC[C@@H](O)CN2C(=O)Nc2ccccc2)O1`, the active concentration is > 10 µM (inactive).

Take `C/C=C/c1ccc([C@H]2[C@@H](CO)N(C(=O)CN(C)C)C23CN(C(=O)C2CCC2)C3)cc1`: the active concentration was > 10 µM (inactive).

As to `C/C=C/c1ccccc1[C@@H]1[C@@H](C#N)N(C(C)=O)[C@@H]1CO`, the active concentration was > 10 µM (inactive).

For `COc1ccccc1C(=O)Nc1ccc2c(c1)C(=O)N(C)[C@@H]1CC[C@@H](CC(=O)NCCc3ccncc3)O[C@H]1CO2`, the active concentration was > 10 µM (inactive).

`O=C(Nc1ccccc1)N1CC(=O)N2[C@H](C1)[C@H](c1ccc(C#CC3CCCCC3)cc1)[C@@H]2CO`: the active concentration is > 10 µM (inactive).

`CC(C)C#Cc1ccc([C@H]2[C@H](CO)N3C(=O)CN(C(=O)c4ccc5c(c4)OCO5)C[C@@H]23)cc1`: the active concentration is > 10 µM (inactive).

Turning to `CCCNC(=O)N1[C@H](CO)[C@H](c2ccccc2-c2ccccc2F)[C@@H]1C#N`, the active concentration is > 10 µM (inactive).

For `CN1C[C@@H](O)COC[C@@H]2O[C@@H](CC(=O)NC3CCCC3)CC[C@H]21`, the active concentration is > 10 µM (inactive).

In the case of `O=C(O)[C@H]1[C@H](CO)[C@H]2Cn3c(ccc(/C=C/c4ccccc4)c3=O)[C@H]2N1Cc1ccc2c(c1)OCO2`, the active concentration is > 10 µM (inactive).
